Several values for one entry are separate records, joined by “and”; a condition that tells them apart may be missing. Equal entries are not always repeated. Where two headings read alike, the source gives them in different places.
Assays:
[1] = target: T1, GST-tAurora A (123-401aa) fusion protein (Homo sapiens, UniProt O14965); assay: Aurora Kinase A luminescent kinase assay; type: biochemical; details: IC50 (concentration of a test compound at which activity of 50% of Aurora A is inhibited)
T1 construct: GST-tAurora A (123-401aa) fusion protein; made in house; host or cells: Sf9 insect cells (baculovirus, pBacPAK8)
T1 sequence (O14965 123-401): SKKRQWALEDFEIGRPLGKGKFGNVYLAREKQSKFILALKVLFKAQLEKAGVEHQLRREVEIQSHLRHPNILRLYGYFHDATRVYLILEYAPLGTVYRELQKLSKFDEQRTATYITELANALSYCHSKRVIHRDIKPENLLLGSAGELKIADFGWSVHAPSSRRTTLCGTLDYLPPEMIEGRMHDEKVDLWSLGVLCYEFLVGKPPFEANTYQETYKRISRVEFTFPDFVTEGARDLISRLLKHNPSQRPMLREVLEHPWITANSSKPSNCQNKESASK
Protocol: The Aurora A catalytic domain with an N-terminal GST tag was constructed in pBacPAK8 plasmid and expressed in sf9 cells. […] To concentrate GST-tAurora A, buffer was replaced with Tris buffer (100 mM Tris (pH 7.5), 300 mM NaCl, 1 mM EDTA, 4 mM DTT) using Amicon ultra-15 (MWCO:30K, Millipore) to 2.4 mg/ml. After the addition of equal volume of glycerol and 0.04% Triton X-100, the proteins were stored aliquoted at −80° C.
Briefly, a test compound, enzyme, substrate-tetra(LRRWSLG), DTT and ATP were dissolved in Aur buffer (50 mM Tris-HCl pH 7.4, 10 mM NaCl, 10 mM MgCl2, and 100 μg/ml BSA) individually before the assay. […] 5 μM ATP (5 μl), 1 mM DTT (5 μl) and 0.1 mM tetra(LRRWSLG) peptide substrate (5 μl) were added into the reactions of test compounds and GST-tAurora A. The reactions were incubated at 37° C. for 90 min. 50 μl of Kinase-Glo Plus Reagent (V3771, Promega) was added into the reactions, followed by the incubation at 25° C. for 20 min.

HCT-116 cells = assay: HCT-116 cell viability MTS assay; type: cell-based; details: Homo sapiens
Protocol: HCT-116 cell viability was examined by the MTS assay (Promega, Madison, Wis., USA). 2000 HCT-116 cells in 100 μL McCoy's 5a medium were seeded in each well of a 96-well plate. After 96-h incubation with a test compound, the cells were incubated with 20 μL of a MTS/PMS mixture (MTS/PMS ratio: 20: 1) for 2 h at 37° C. in a humidified incubator with 5% CO2 to allow viable cells to convert the tetrazolium salt (MTS) into formazan. The amount/concentration of formazan, which indicates the number of live cells, was determined by measuring the absorbance at 490 nm using a PerkinElmer Victor2 plate reader (PerkinElmer, Shelton, Cont., USA).

HCT-116 xenografts = assay: In vivo anticancer activity, colon tumor xenograft mice (injected with HCT-116); design: species or system nude mice; details: for average tumor size: treated mice
Protocol: In vivo efficacy of the compounds of this invention was assessed using colon tumor xenograft mice (injected with HCT-116), as described in Cancer Research 2004, 64, 4621-4628.
HCT-116 cells were grown as subcutaneous tumors in nude mice. When well-established HCT-116 xenografts were palpable with tumor size of ˜100 mm^3, mice were randomly assigned to three groups: a vehicle control group (10 mice), a positive control group (10 mice), and a treatment group (21 mice). Of the treated mice, ten received Compound 209 at a daily dosage of 5 mg/kg and eleven received the same compound at a daily dosage of 15 mg/kg of via IV injection through the tail veins for 5 days/week for 2 consecutive weeks (days 1-5 and 8-12). The positive control mice received VX-680 (a known anti-cancer compound) at a daily dosage of 50 mg/kg, also via IV injection through the tail veins for 5 days/week for 2 consecutive weeks (days 1-5 and 8-12).

[2] = read-out: IC50 (concentration of a test compound which causes 50% of the cell death), HCT-116, 96-h incubation, MTS
[3] = HCT-116, 96 h, read-out: IC50 (concentration of a test compound which causes 50% of the cell death)
[4] = HCT-116, 96 h, read-out: IC50 (concentration of a test compound which causes 50% of the cell death), HCT-116, 96-h incubation, MTS

| Compound | IC50 [1] | IC50 (HCT-116 cells; [2]) [µM] | further results |
| --- | --- | --- | --- |
| O=C(Nc1ccccc1)Nc1ccc(CCNc2ncnc3[nH]c(-c4ccccc4)c(-c4ccccc4)c23)cc1 [Compound 172] | 0.045 to 0.4 µM and < 1 µM | 0.1 to 0.9 | – |
| O=C(Nc1ccccc1)Nc1ccc(CCNc2ncnc3cc(-c4ccccc4)oc23)cc1 [Compound 176] | < 1 µM | 0.1 to 0.9 | – |
| O=C(Nc1ccccc1)Nc1ccc(CCNc2ncnc3sc4c(c23)CCC4)cc1 [Compound 196] | 0.045 to 0.4 µM and < 1 µM | 0.1 to 0.9 | – |
| O=C(Nc1ccccc1)Nc1ccc(CCNc2ncnc3oc(-c4ccccc4)c(C#CCO)c23)cc1 [Compound 202] | < 1 µM and 0.045 to 0.4 µM | 0.1 to 0.9 | – |
| COc1ccc(-c2cc3c(NCCc4ccc(NC(=O)Nc5ccccc5)cc4)ncnc3o2)cc1 [Compound 204] | < 1 µM and 0.045 to 0.4 µM | 0.1 to 0.9 | – |
| O=C(Nc1ccccc1)Nc1ccc(CCNc2ncnc3oc(-c4ccc(O)cc4)cc23)cc1 [Compound 205] | < 1 µM and 0.045 to 0.4 µM | < 0.1 | – |
| O=C(Nc1ccccc1)Nc1ccc(CCNc2ncnc3oc(Cl)c(-c4ccccc4)c23)cc1 [Compound 213] | < 1 µM | 0.1 to 0.9 | – |
| O=C(NCCCl)Nc1ccc(CCNc2ncnc3oc(-c4ccccc4)cc23)cc1 [Compound 215] | < 1 µM | – | IC50 (HCT-116 cells; [3]): 0.1 to 0.9 µM |
| O=C(NCCCl)Nc1ccc(CCNc2ncnc3oc(-c4ccccc4)c(Cl)c23)cc1 [Compound 217] | < 1 µM and 0.045 to 0.4 µM | – | IC50 (HCT-116 cells; [3]): 0.1 to 0.9 µM |
| O=C(NCCN1CCOCC1)Nc1ccc(CCNc2ncnc3oc(-c4ccccc4)c(Cl)c23)cc1 [Compound 218] | < 1 µM and 0.045 to 0.4 µM | 0.1 to 0.9 | – |
| O=C(Nc1ccccc1)Nc1ccc(CCNc2ncnc3oc(-c4ccccc4)c(-c4cccc([N+](=O)[O-])c4)c23)cc1 [Compound 219] | < 1 µM and 0.045 to 0.4 µM | 0.1 to 0.9 | – |
| COc1cccc(-c2cc3c(NCCc4ccc(NC(=O)Nc5ccccc5)cc4)ncnc3o2)c1 [Compound 221] | < 1 µM and 0.045 to 0.4 µM | 0.1 to 0.9 | – |
| O=C(Nc1ccccc1)Nc1ccc(CCNc2ncnc3oc(-c4cccc(O)c4)cc23)cc1 [Compound 223] | < 1 µM and 0.045 to 0.4 µM | 0.1 to 0.9 | – |
| CN(C)CCOc1cccc(-c2cc3c(NCCc4ccc(NC(=O)Nc5ccccc5)cc4)ncnc3o2)c1 [Compound 224] | < 1 µM and 0.045 to 0.4 µM | – | IC50 (HCT-116 cells; [4]): 0.1 to 0.9 µM |
| O=C(Nc1ccccc1)Nc1ccc(CCNc2ncnc3oc(-c4ccccc4)c(CO)c23)cc1 [Compound 225] | < 1 µM and 0.045 to 0.4 µM | 0.1 to 0.9 | – |
| O=C(Nc1ccccc1)Nc1ccc(CCNc2ncnc3oc(-c4ccc(OCCN5CCOCC5)cc4)cc23)cc1 [Compound 230] | 0.045 to 0.4 µM and < 1 µM | 0.1 to 0.9 | – |
| O=C(Nc1ccccc1)Nc1ccc(CCNc2ncnc3oc(-c4ccc(OCCN5CCC(CO)CC5)cc4)cc23)cc1 [Compound 236] | < 1 µM and 0.045 to 0.4 µM | 0.1 to 0.9 | – |
| O=C(Nc1ccccc1)Nc1ccc(CCNc2ncnc3oc(-c4ccc(OCCN5CCC(O)CC5)cc4)cc23)cc1 [Compound 239] | < 1 µM and 0.045 to 0.4 µM | 0.1 to 0.9 | – |
| O=C(Nc1ccccc1)Nc1ccc(CCNc2ncnc3oc(-c4ccc(OCCCN5CCC(O)CC5)cc4)cc23)cc1 [Compound 240] | < 1 µM and 0.045 to 0.4 µM | 0.1 to 0.9 | – |
| COc1ccc(-c2oc3ncnc(NCCc4ccc(NC(=O)Nc5ccccc5)cc4)c3c2Cl)cc1 [Compound 244] | < 1 µM and 0.045 to 0.4 µM | 0.1 to 0.9 | – |
| COc1ccc(-c2cc3c(NCCc4ccc(NC(=O)Nc5ccccc5CN(C)C)cc4)ncnc3o2)cc1 [Compound 245] | < 1 µM | 0.1 to 0.9 | – |
| O=C(Nc1ccccc1)Nc1ccc(CCNc2ncnc3sc4c(c23)CCCCC4)cc1 [Compound 248] | < 1 µM | 0.1 to 0.9 | – |
| O=C(Nc1ccccc1)Nc1ccc(CCNc2ncnc3oc(-c4ccccc4)c(C#CCCO)c23)cc1 [Compound 249] | 0.045 to 0.4 µM and < 1 µM | 0.1 to 0.9 | – |
| O=C(Nc1ccccc1)Nc1ccc(CCNc2ncnc3oc(-c4ccccc4)c(-c4ccc(CO)o4)c23)cc1 [Compound 250] | 0.045 to 0.4 µM and < 1 µM | 0.1 to 0.9 | – |
| O=C(Nc1ccccc1)Nc1ccc(CCNc2ncnc3oc(-c4ccccc4)c(CCCCO)c23)cc1 [Compound 251] | < 1 µM | 0.1 to 0.9 | – |
| CN(C)Cc1cccc(NC(=O)Nc2ccc(CCNc3ncnc4oc(-c5ccccc5)c(Cl)c34)cc2)c1 [Compound 252] | < 1 µM | 0.1 to 0.9 | – |
| Cc1oc2ncnc(NCCc3cnc(NC(=O)Nc4ccccc4)s3)c2c1C [Compound 254] | 0.045 to 0.4 µM and < 1 µM | 0.1 to 0.9 | – |
| O=C(Nc1ccccc1)Nc1ncc(CCNc2ncnc3oc(-c4ccccc4)c(Cl)c23)s1 [Compound 256] | 0.045 to 0.4 µM and < 1 µM | 0.1 to 0.9 | – |
| Cc1cc(Nc2cc(N3CCN(C)CC3)nc(Sc3ccc(NC(=O)C4CC4)cc3)n2)n[nH]1 [VX-680, reference compound] | – | – | inhibition of tumor growth (HCT-116 xenografts; 50 mg/kg daily, IV, days 1-5 and 8-12, positive control): inhibition of tumor growth |

Continued, in another order:

| IC50 [1] | Compound | IC50 (HCT-116 cells; [2]) [µM] | further results |
| --- | --- | --- | --- |
| < 1 µM and 0.045 to 0.4 µM | CN(C)Cc1ccccc1NC(=O)Nc1ccc(CCNc2ncnc3oc(-c4ccccc4)c(Cl)c23)cc1 [Compound 209] | < 0.1 | tumor growth suppression (HCT-116 xenografts; 5 mg/kg daily, IV, days 1-5 and 8-12): suppressed tumor growth insignificantly; inhibition of tumor growth (HCT-116 xenografts; 15 mg/kg daily, IV, days 1-5 and 8-12): inhibition of tumor growth comparable to that of VX-680; average tumor size (HCT-116 xenografts; eleventh day (dose group not stated)): 654 mm^3; average tumor size (HCT-116 xenografts; fourth day (dose group not stated)): 381 mm^3 |
| < 1 µM and 0.045 to 0.4 µM | CN(C)Cc1ccccc1NC(=O)Nc1ccc(CCNc2ncnc3oc(-c4ccccc4)cc23)cc1 [Compound 211] | 0.1 to 0.9 | – |
| 0.045 to 0.4 µM and < 1 µM | O=C(Nc1ccc(CCNc2ncnc3oc(-c4ccccc4)c(-c4ccccc4)c23)cc1)NC1CCC1 [Compound 214] | 0.1 to 0.9 | – |
| < 1 µM and 0.045 to 0.4 µM | Cc1oc2ncnc(NCCc3ccc(NC(=O)Nc4ccccc4)cc3)c2c1C [Compound 220] | 0.1 to 0.9 | – |
| < 1 µM and 0.045 to 0.4 µM | CCCCNC(=O)Nc1ccc(CCNc2ncnc3oc(-c4ccccc4)c(-c4ccccc4)c23)cc1 [Compound 222] | 0.1 to 0.9 | – |
| < 1 µM and 0.045 to 0.4 µM | Cc1c(-c2ccccc2)oc2ncnc(NCCc3ccc(NC(=O)Nc4ccccc4)cc3)c12 [Compound 226] | 0.1 to 0.9 | – |
| 0.045 to 0.4 µM and < 1 µM | O=C(Nc1ccc(CCNc2ncnc3oc(-c4ccccc4)c(Cl)c23)cc1)Nc1cccnc1 [Compound 232] | 0.1 to 0.9 | – |
| < 1 µM and 0.045 to 0.4 µM | O=C(Nc1ccccc1)Nc1ccc(CCNc2ncnc3oc(-c4ccc(OCCCl)cc4)cc23)cc1 [Compound 235] | 0.1 to 0.9 | – |
| < 1 µM and 0.045 to 0.4 µM | O=C(Nc1ccccc1)Nc1ccc(CCNc2ncnc3oc(-c4ccc(OCCCN5CCC(CO)CC5)cc4)cc23)cc1 [Compound 237] | 0.1 to 0.9 | – |
| < 1 µM and 0.045 to 0.4 µM | O=C(Nc1ccccc1)Nc1ccc(CCNc2ncnc3oc(-c4ccc(OCCCN5CCC[C@H]5CO)cc4)cc23)cc1 [Compound 241] | 0.1 to 0.9 | – |
| 0.045 to 0.4 µM and < 1 µM | CN(C)CCCOc1ccc(-c2cc3c(NCCc4ccc(NC(=O)Nc5ccccc5)cc4)ncnc3o2)cc1 [Compound 247] | – | IC50 (HCT-116 cells; [4]): 0.1 to 0.9 µM |
| 0.045 to 0.4 µM and < 1 µM | CN(C)Cc1ccc(NC(=O)Nc2ccc(CCNc3ncnc4oc(-c5ccccc5)c(Cl)c34)cc2)cc1 [Compound 253] | 0.1 to 0.9 | – |
| < 1 µM | O=C(Nc1ccccc1)Nc1ncc(CCNc2ncnc3oc(-c4ccccc4)cc23)s1 [Compound 255] | 0.1 to 0.9 | – |

Source: patent US8138194B2, “Fused bicyclic pyrimidine compounds as aurora kinase inhibitors” (National Health Research Institutes, priority 2008, dated 2012)
